Test results reported in patent US5968912A, “Methods for immunosuppressing” (Immune Modulation, Inc., priority 1997, dated 1999).

What was measured:
[1] = system: tetanus toxoid-specific T-cell proliferation (PBMC); test: cells; assay type: cell-based, human
IL-10 = IL-10 production in PHA-stimulated PBMC cultures; assay type: cell-based, human; set-up: % Inhibition of IL-10 production: concentration or dose not given beside the values
Method: Production of autocrine growth factors (IL-2, IL-4, IL-10 and Interferon-gamma) in PHA-stimulated human PBMC cultures
Culture supernatants were collected at the times indicated and frozen at -20° C. At the end of 96 hr., all supernatants were assayed by enzyme immunoassay for the presence of the cytokines: interleukin-2, -4, -10 and interferon (IFN)-gamma. Results were expressed in pg/mL concentration of cytokine and % inhibition of cytokine production.

[2] = system: skin graft rejection (Balb/C tail skin on C57BL/6 mice); test: Skin graft survival in mice; assay type: in vivo, mouse
Method: Effect of HE-33 on Skin-Grafting
Balb/C and C57BL/6 mice are genetically histoincompatible in that Balb/C is of haplotype H-2^d whereas C57BL/6 is of haplotype H-2^b. The surgical procedure used in these experiments was performed according to the procedures reported by Matriano, J. E. et al. (J. Immunol., 1996, 156:4114-4119).
Mice in groups 4 and 5 were orally administered HE-33 daily from 2 days prior to grafting. Rejection was assessed by observing redness and dryness of the graft (Natriano, J. E. et al., J. Immunol., 1996, 153:1505-1514). At a dose of 100 mg/kg I.V., HE-33 prolonged graft survival by approximately 4 days.
C57BL/6 mice were grafted with tail skin from Balb/c mice. Drug treatment
was started two days prior to grafting. Casts were removed on day 6 and
survival of the graft was scored everyday. Rejection was defined on chang
in thickness, dryness and >80% redness of the graft.

[3] = system: mononuclear leukocytes (Two-way MLR); test: Two-way mixed leukocyte reaction (MLR), 3H-thymidine incorporation; assay type: cell-based, human
[4] = Single dose range-finding toxicity study in mice; assay type: in vivo, mouse (Swiss Webster); set-up: key to Clinical observation: Normal / Clinical observation: Vocalization / Clinical observation: Slow breathing / Clinical observation: Hypoactive / Clinical observation: FPSR / Clinical observation: Cool to touch / Clinical observation: Hypoactivity: Observations are recorded as present (x); not observed (--); conditions: mouse, in vivo, single IV administration, mice
Method: (§1) Single dose range-finding study of HE-33 in mice
(§2) Swiss Webster mice (Charles River Laboratories, Hollister, Calif.) were used for the preliminary toxicology study. One mouse per dose level was administered a single intravenous (IV) dose of either 1.5, 15, 75, 100, 150, 200, 300 or 400 mg of HE-33/kg body weight. The dose volume for all mice receiving saline or formulations of HE-3 3 was 10 mL/kg body weight. All doses were administered as a slow-push IV injection in the tail vein. Day 1 of the study for each mouse occurred on the day of administration of the drug or the saline.
(§3) Clinical observations/body weights
(§4) Each mouse was observed closely for clinical signs of toxicity at approximately 10, 30 and 60 minutes and 5 hours after dosing on Day 1, and once daily on Days 2-8. In addition, mortality checks were performed twice daily. Body weights were obtained on each mouse prior to dosing on Day 1. Body weights (Day 1) for the mice used in this study ranged between 27.3 and 32.5 g (Table 8).
(§5) ^a Animals were dosed with saline adjusted to pH 8.55.
(§6) ^b Observations are recorded as present (x) or not observed (--).
(§7) ^c Additional observation was reported in the time interval closest t
(§8) ^d FPSR = Flattened posture with or without closed eyes; animal would
(§9) periodically have a startled response in response to or without a noise

Swiss Webster mice = test: Single dose range-finding toxicity study in mice; assay type: in vivo, mouse (Swiss Webster); set-up: key to Clinical observation: Normal / Clinical observation: Vocalization / Clinical observation: Slow breathing / Clinical observation: Hypoactive / Clinical observation: FPSR / Clinical observation: Cool to touch / Clinical observation: Hypoactivity: Observations are recorded as present (x); not observed (--)
Method: as §1, §2, §3, §4, §5, §6, §7, §8, §9

[5] = animal 3, 75 mg/kg IV, 30 min to day 8
[6] = animal 4, 150 mg/kg IV, 10, 30, 60 min
[7] = animal 4, 150 mg/kg IV, 5 hr to day 8
[8] = animal 5, 300 mg/kg IV, 10 min to 5 hr
[9] = animal 5, 300 mg/kg IV, days 2-8
[10] = animal 11, 300 mg/kg IV, 30, 60 min
[11] = animal 11, 300 mg/kg IV, 10 min and 5 hr to day 8

**Q.** What does the source list for `CCCN(CCC)c1ncnc2c1ncn2[C@@H]1O[C@@H]2COP(=O)(O)O[C@H]2[C@H]1O` [HE-33, N^6,N^6 -di-n-Propyl-c-AMP]?
**A.** Proliferation ([1]; 1 μg/mL): 358 CPM; Proliferation ([1]; 10 μg/mL): 94 CPM; inhibition at 1 µg/mL ([1]; Homo sapiens, T-cell, 1 μg/mL): 65%; % Inhibition of IL-10 production (IL-10; 24 hours): 21%; IL-10 production (IL-10; 24 hours): 441 pg/mL; % Inhibition of IL-10 production (IL-10; 48 hours): 0%; IL-10 production (IL-10; 48 hours): 1304 pg/mL; % Inhibition of IL-10 production (IL-10; 72 hours): 0%; IL-10 production (IL-10; 72 hours): 790 pg/mL; % Inhibition of IL-10 production (IL-10; 96 hours): 0%; IL-10 production (IL-10; 96 hours): 991 pg/mL; Mean Survival Time ([2]; 50 mg/kg (I.V.)): 10.25 days; Mean Survival Time ([2]; 100 mg/kg (I.V.)): 13.4 days; Prolongation of graft survival ([2]; 100 mg/kg I.V.): approximately 4 days; Mean Survival Time ([2]; 200 mg/kg (oral)): 9.2 days; Mean Survival Time ([2]; 400 mg/kg (oral)): 9.8 days; IC50 ([3]; Homo sapiens, Leukocyte, read-out: IC50, drug concentration capable of inducing a 50% inhibition): 100 to 1000 nM; inhibition at 0.01 µM ([3]; Homo sapiens, Leukocyte, 0.01 μM): 28%; inhibition at 0.1 µM ([3]; Homo sapiens, Leukocyte, 0.1 μM): 40%; inhibition at 1 µM ([3]; Homo sapiens, Leukocyte, 1 μM): 81%; inhibition at 10 µM ([3]; Homo sapiens, Leukocyte, 10 μM): 96%; inhibition at 100 µM ([3]; Homo sapiens, Leukocyte, 100 μM): 99.2%; Inhibitory capacity on two-way MLR, in words ([3]; two-way MLR): comparable to that of cyclosporin (CsA); No-effect level (NOEL) [4]: 100 mg/kg; MTD ([4]; read-out: maximum tolerated dose (MTD)): ≥ 400 mg/kg; Clinical signs of toxicity (Swiss Webster mice; 150-400 mg/kg IV, between 10 minutes and 5 hrs after dosing on Day 1): signs of hypoactivity, flattened posture with or without closed eyes and slow breathing; Clinical observation: Normal (Swiss Webster mice; animal 1, 1.5 mg/kg IV, all times 10 min to day 8): x; Clinical observation: Normal (Swiss Webster mice; animal 2, 15 mg/kg IV, all times 10 min to day 8): x; Clinical observation: Normal (Swiss Webster mice; animal 3, 75 mg/kg IV, 10 min): --; Clinical observation: Vocalization (Swiss Webster mice; animal 3, 75 mg/kg IV, 10 min): x; Clinical observation: Normal (Swiss Webster mice; [5]): x; Clinical observation: Vocalization (Swiss Webster mice; [5]): --; Clinical observation: FPSR (Swiss Webster mice; [6]): x; Clinical observation: Hypoactive (Swiss Webster mice; [6]): x; Clinical observation: Normal (Swiss Webster mice; [6]): --; Clinical observation: Slow breathing (Swiss Webster mice; [6]): x; Clinical observation: FPSR (Swiss Webster mice; [7]): --; Clinical observation: Hypoactive (Swiss Webster mice; [7]): --; Clinical observation: Normal (Swiss Webster mice; [7]): x; Clinical observation: Slow breathing (Swiss Webster mice; [7]): --; Clinical observation: FPSR (Swiss Webster mice; animal 5, 300 mg/kg IV, 10, 30, 60 min): x; Clinical observation: Cool to touch (Swiss Webster mice; animal 5, 300 mg/kg IV, 10, 30, 60 min and days 2-8): --; Clinical observation: Hypoactivity (Swiss Webster mice; [8]): x; Clinical observation: Normal (Swiss Webster mice; [8]): --; Clinical observation: Slow breathing (Swiss Webster mice; [8]): x; Clinical observation: Cool to touch (Swiss Webster mice; animal 5, 300 mg/kg IV, 5 hr): x; Clinical observation: FPSR (Swiss Webster mice; animal 5, 300 mg/kg IV, 5 hr to day 8): --; Clinical observation: Hypoactivity (Swiss Webster mice; [9]): --; Clinical observation: Normal (Swiss Webster mice; [9]): x; Clinical observation: Slow breathing (Swiss Webster mice; [9]): --; Clinical observation: Normal (Swiss Webster mice; animal 8, 100 mg/kg IV, all times 10 min to day 8): x; Clinical observation: Normal (Swiss Webster mice; animal 9, 200 mg/kg IV, all times 10 min to day 8): x; Clinical observation: Normal (Swiss Webster mice; animal 10, 200 mg/kg IV, all times 10 min to day 8): x; Clinical observation: FPSR (Swiss Webster mice; [10]): x; Clinical observation: Hypoactivity (Swiss Webster mice; [10]): x; Clinical observation: Normal (Swiss Webster mice; [10]): --; Clinical observation: Slow breathing (Swiss Webster mice; [10]): x; Clinical observation: FPSR (Swiss Webster mice; [11]): --; Clinical observation: Hypoactivity (Swiss Webster mice; [11]): --; Clinical observation: Normal (Swiss Webster mice; [11]): x; Clinical observation: Slow breathing (Swiss Webster mice; [11]): --; Clinical observation: Slow breathing (Swiss Webster mice; animal 12, 400 mg/kg IV, 10, 30, 60 min and days 2-8): --; Clinical observation: FPSR (Swiss Webster mice; animal 12, 400 mg/kg IV, 10 min): --; Clinical observation: Normal (Swiss Webster mice; animal 12, 400 mg/kg IV, 10 min and days 2-8): x; Clinical observation: FPSR (Swiss Webster mice; animal 12, 400 mg/kg IV, 30 min): x; Clinical observation: Normal (Swiss Webster mice; animal 12, 400 mg/kg IV, 30 min, 60 min, 5 hr): --; Clinical observation: FPSR (Swiss Webster mice; animal 12, 400 mg/kg IV, 60 min, 5 hr): x; Clinical observation: Slow breathing (Swiss Webster mice; animal 12, 400 mg/kg IV, 5 hr): x; Clinical observation: FPSR (Swiss Webster mice; animal 12, 400 mg/kg IV, days 2-8): --; Condition after Day 1 (Swiss Webster mice; drug-treated groups, Days 2 to 8): normal between Days 2 and 8; Survival for the duration of the study (Swiss Webster mice; single IV 1.5-400 mg/kg, 8 days): All mice survived for the duration of the study
